Values joined by “and” are separate entries in the source; they are usually repeats but may differ in a detail not shown here. Equal values may be shown once.
Tested on: HeLa cells
Experiment: Toxicity to HeLa cells in culture, MTT (Example 23)
Assay type: cell-based, human
Conditions: 48 hours of culture
Procedure: The toxicity of Example 1 is compared to Chlorohexidine gluconate (a commonly used oral antiseptic) to human HeLa cells in culture is determined. HeLa cells are plated at subconfluency into a 96-well plate tissue culture plate, and after attachment, treated with the indicated final concentrations of Example 1 polymer or Chlorohexidine gluconate in triplicates. After 48 hours of culture, MTT reagent is added for two 2 hours to permit the development of viability-indicating color. 1 μM PAO (phenylarsine oxide) is used as a positive (effective killing) control. […] Furthermore, the minimum inhibitory concentration of Example 1 polymer is found to be about 10^−3% while that for the chlorohexidine gluconate is 6×10^−5%. This means that the Example 1 polymer is about […] less toxic to HeLa cells in culture than chlorohexidine gluconate.

For `N=C(NCCCCCCNC(=N)NC(=N)Nc1ccc(Cl)cc1)NC(=N)Nc1ccc(Cl)cc1.O=C(O)[C@H](O)[C@@H](O)[C@H](O)[C@H](O)CO.O=C(O)[C@H](O)[C@@H](O)[C@H](O)[C@H](O)CO` [chlorohexidine gluconate], the “Lethal dose 50 (LD50) for HeLa cells” value was ~0.0004% and > 1.2×10^−4%.
